How the values were obtained:
[1] = target: T1, human GLP-1R receptor (Homo sapiens, UniProt P43220); test: GLP-1R low expression cell assay (cAMP TR-FRET, CHO-K1_hGLP-1Rlow_clone10); format: cell-based; details: CHO-K1_hGLP-1Rlow_clone10 cells, percent activation relative to control GLP-1 peptide
T1 construct: expressed in transfected cells
Method: Stable cell lines expressing high and low GLP-1R surface expression are generated in CHO-K1 cells transfected (Fugene 6) with a puromycin selectable DNA plasmid encoding human GLP-1R receptor (accession number: NM_002062.5) under control of an EF1A promoter. Transfected cells are seeded into 24-well plates (9,000 cells/well) containing complete medium and incubated in a humidified incubator at 37° C. with 5% carbon dioxide. After overnight incubation, medium is replaced with complete medium supplemented with puromycin (6 μg/mL) and refreshed every 2-3 days to select for stably transfected cells. Individual pools of selected cells are expanded prior to analysis for responsiveness to GLP-1 control peptide using a TR-FRET assay to detect cAMP (LANCE Ultra cAMP Assay, Perkin Elmer). Briefly, cells are collected in Versene solution, plated in 384-well plates (1,000 cells/well) and combined with serially diluted GLP-1R control peptide (10 nL) using an acoustic dispenser (ECHO). Plates are incubated for 30 minutes at 25° C. prior to the addition of EU-cAMP tracer (5 μL) and Ulight-anti-cAMP (5 μL) reagents to each well, followed by 15 minutes incubation at 25° C. TR-FRET signal is detected using an EnVision Multimode Plate Reader (excitation=320 nm; emission=615 and 655 nm). Dose-response curves are used to generate EC50 values as a measure of responsiveness to the GLP-1R control peptide. Selected cell lines are monitored for responsiveness over multiple passages to ensure stability. […] Briefly, GLP-1R expression is analyzed by flow cytometry using a fluorescein-labeled Exendin-4 peptide fluorescent probe (FLEX). Cells are harvested in Versene solution and washed 3-times with PBS+0.5% BSA before incubation with FLEX reagent (10 μM) for 2 hours at room temperature. After incubation, cells are washed 3-times in PBS+0.5% BSA before final resuspension in PBS prior to analysis by flow cytometry to measure FLEX mean fluorescence intensity (MFI) as a measure of GLP-1R expression on the cell surface.
For compound testing in the CHO-K1_hGLP-1Rlow_clone10 cell lines, cells are seeded in 384-well plates (1,000 cells/well). Test compounds are serially diluted in DMSO (10-point, 3-fold dilution), added to wells using an ECHO dispenser (10 nL/well) and plates are centrifuged for 1 min and agitated for 2 min at room temperature prior to 30-minute incubation at 25° C. After incubation, Eu-cAMP (5 μL) and Ulight-anti-cAMP (5 μL) reagents are added to each well, followed by centrifugation for 1 minute, agitation for 2 minutes at room temperature, and final incubation of the plates at 25° C. for 15 minutes. Plates are read using an EnVision microplate reader (excitation=320 nm; emission=615 and 655 nm). Dose-response curves are generated from duplicate wells based on percent activation calculated relative to a control GLP-1 peptide agonist that was run in parallel. EC50 values are determined by fitting percent activation as a function of compound concentration using the Hill equation (XLfit).
Stable cell lines expressing high and low GLP-1R surface expression were generated in CHO-K1 cells transfected (Fugene 6) with a puromycin selectable DNA plasmid encoding human GLP-1R receptor (accession number: NM_002062.5) under control of an EF1A promoter. Transfected cells were seeded into 24-well plates (9,000 cells/well) containing complete medium and incubated in a humidified incubator at 37° C. with 5% carbon dioxide. After overnight incubation, medium was replaced with complete medium supplemented with puromycin (6 μg/mL) and refreshed every 2-3 days to select for stably transfected cells. Individual pools of selected cells were expanded prior to analysis for responsiveness to GLP-1 control peptide using a TR-FRET assay to detect cAMP (LANCE Ultra cAMP Assay, Perkin Elmer).

[2] = Passive permeability and efflux ratio (Caco-2); format: in vitro ADME; details: human
Method: Caco-2 cells (clone C2BBe1) are obtained, e.g., from American Type Culture Collection (Manassas, VA). Cell monolayers are grown to confluence on collagen-coated, microporous membranes in 12-well assay plates. The permeability assay buffer is Hanks' balanced salt solution containing 10 mM HEPES and 15 mM glucose at a pH of 7.4. The buffer in the receiver chamber also contains 1% bovine serum albumin. The dosing solution concentration is 5 μM of test article in the assay buffer. Cell monolayers are dosed on the apical side (A-to-B) or basolateral side (B-to-A) and incubated at 37° C. with 5% CO2 in a humidified incubator. Samples are taken from the donor and receiver chambers at 120 minutes. Each determination is performed in duplicate. The flux of lucifer yellow is also measured post-experimentally for each monolayer to ensure no damage is inflicted to the cell monolayers during the flux period. All samples are assayed by LC-MS/MS using electrospray ionization. The apparent permeability (Papp) and percent recovery were calculated as follows: Papp=(dCr/dt)×Vr/(A×CA) (1) Percent Recovery=100×((Vr×Cr^final)+(Vd×Cd^final))/(Vd×CN) (2), where, dCr/dt is the slope of the cumulative receiver concentration versus time in μM s^−1; Vr is the volume of the receiver compartment in cm^3; Vd is the volume of the donor compartment in cm^3; A is the area of the insert (1.13 cm^2 for 12-well); CA is the average of the nominal dosing concentration and the measured 120-minute donor concentration in μM; CN is the nominal concentration of the dosing solution in μM; Cr^final is the cumulative receiver concentration in μM at the end of the incubation period; Cd^final is the concentration of the donor in μM at the end of the incubation period. Efflux ratio (ER) is defined as Papp (B-to-A)/Papp (A-to-B). Rat Pharmacokinetics
Caco-2 cells (clone C2BBe1) were obtained from American Type Culture Collection (Manassas, VA). Cell monolayers were grown to confluence on collagen-coated, microporous membranes in 12-well assay plates. Details of the plates and their certification are shown below. The permeability assay buffer was Hanks' balanced salt solution containing 10 mM HEPES and 15 mM glucose at a pH of 7.4. The buffer in the receiver chamber also contained 1% bovine serum albumin. The dosing solution concentration was 5 μM of test article in the assay buffer. Cell monolayers were dosed on the apical side (A-to-B) or basolateral side (B-to-A) and incubated at 37° C. with 5% CO2 in a humidified incubator. Samples were taken from the donor and receiver chambers at 120 minutes. Each determination was performed in duplicate. The flux of lucifer yellow was also measured post-experimentally for each monolayer to ensure no damage was inflicted to the cell monolayers during the flux period. All samples were assayed by LC-MS/MS using electrospray ionization. The apparent permeability (Papp) and percent recovery were calculated as follows: Papp=(dCr/dt)×Vr/(A×CA) (1) Percent Recovery=100×((Vr×Cr^final)+(Vd×Cd^final))/(Vd×CN) (2), where, dCr/dt is the slope of the cumulative receiver concentration versus time in μM s^−1; Vr is the volume of the receiver compartment in cm^3; Vd is the volume of the donor compartment in cm^3; A is the area of the insert (1.13 cm^2 for 12-well); CA is the average of the nominal dosing concentration and the measured 120-minute donor concentration in μM; CN is the nominal concentration of the dosing solution in μM; Cr^final is the cumulative receiver concentration in μM at the end of the incubation period; Cd^final is the concentration of the donor in μM at the end of the incubation period. Efflux ratio (ER) is defined as Papp (B-to-A)/Papp (A-to-B).

[3] = Rat pharmacokinetics; format: in vivo; parameters: AUC: concentration or dose not given beside the values; details: male Sprague-Dawley rats, plasma, route not given; for half-life: read-out: Rat T1/2 (converted)
Method: Intravenous dosing: Compounds were formulated at 0.5 mg/mL in a solution comprising 5% polyethylene glycol 400 and 95% (12% (w/v) sulfobutyl-β-cyclodextrin in water) (v/v). Formulated compounds were sterile filtered through a 0.22 micron filter before dosing. Compounds were administered to male, 7-11-week-old Sprague-Dawley rats by jugular vein cannula infusion over 30 minutes at a dose of 1 mg/kg. […]
Sample collection: Blood collections of about 0.2 mL per time point were performed from jugular vein or other suitable site of each animal, into pre-chilled commercial EDTA-K2 tubes and placed on wet ice until centrifugation. Blood samples were processed for plasma by centrifugation at approximately 4° C., 3,200 g for 10 min. Plasma was collected and transferred into pre-labeled 96 well plate or polypropylene tubes, quick frozen over dry ice and kept at −60° C. or lower until LC-MS/MS analysis.
Data analysis: Plasma concentration versus time data was plotted in graph and analyzed by non-compartmental approaches using the Phoenix WinNonlin 6.3 software program. Related PK parameters were calculated according to dosing route, e.g., CL, Vdss and C0 for intravenous administration, Cmax, Tmax or % F for extravascular administration, and T1/2, AUC(0-t), AUC(0-inf), MRT(0-t), MRT(0-inf) for all routes.

[4] = Rat pharmacokinetics; format: in vivo; details: male Sprague-Dawley rats, plasma, route not stated in table (IV or oral gavage 10 mL/kg of 0.3 or 0.6 mg/mL)

T1 sequence (P43220 24-463): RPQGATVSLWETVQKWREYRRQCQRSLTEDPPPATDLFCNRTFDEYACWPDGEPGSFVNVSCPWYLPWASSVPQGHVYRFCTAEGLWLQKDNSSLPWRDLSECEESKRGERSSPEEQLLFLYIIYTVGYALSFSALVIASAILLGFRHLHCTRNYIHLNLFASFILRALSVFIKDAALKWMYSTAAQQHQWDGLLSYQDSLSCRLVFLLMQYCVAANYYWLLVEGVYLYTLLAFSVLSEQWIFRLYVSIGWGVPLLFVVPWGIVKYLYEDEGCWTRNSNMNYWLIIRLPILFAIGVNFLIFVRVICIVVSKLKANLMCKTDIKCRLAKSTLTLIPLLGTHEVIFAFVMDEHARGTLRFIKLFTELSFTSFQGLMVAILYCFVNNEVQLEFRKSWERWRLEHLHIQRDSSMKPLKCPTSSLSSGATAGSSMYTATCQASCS

**Q.** For `CC1(c2ccc(C#N)cc2F)Oc2cccc(N3CCN(Cc4nc5ccc(C(=O)O)cc5n4Cc4cncs4)C4CC43)c2O1` (centres unmarked) [Compound 34, 2-((5-(2-(4-Cyano-2-fluorophenyl)-2-methylbenzo[d][1,3]dioxol-4-yl)-2,5-diazabicyclo[4.1.0]heptan-2-yl)methyl)-1-(thiazol-5-ylmethyl)-1H-benzo[d]imidazole-6-carboxylic Acid], which EC50 [1] is on record?
**A.** < 5 nM

**Q.** And the efflux ratio at 120 min, 5 μM ([2]; pH 7.4, Caco-2, efflux ratio = Papp (B-to-A)/Papp (A-to-B), read-out: ER)?
**A.** 1.82

**Q.** What about the Papp A→B at 120 min, 5 μM ([2]; Caco-2, 5 μM, pH 7.4, 120 minutes) of the same molecule?
**A.** 19.9 ×10⁻⁶ cm/s

**Q.** For `C[C@]1(c2ccc(C#N)cc2F)Oc2cccc(N3CCN(Cc4nc5ccc(C(=O)O)cc5n4Cc4cncs4)[C@H]4C[C@H]43)c2O1` [Compound 36, 2-((5-(2-(4-Cyano-2-fluorophenyl)-2-methylbenzo[d][1,3]dioxol-4-yl)-2,5-diazabicyclo[4.1.0]heptan-2-yl)methyl)-1-(thiazol-5-ylmethyl)-1H-benzo[d]imidazole-6-carboxylic Acid], which EC50 [1] is on record?
**A.** 5 to 50 nM

**Q.** What about the AUC [3] of the same molecule?
**A.** 20.7 ± 12.6 ng·h/mL

**Q.** What about the half-life [3] of the same molecule?
**A.** 108 min

**Q.** And the Cmax [4]?
**A.** 19.3 ± 2.7 ng/mL

**Q.** Which results are given for `C[C@@]1(c2ccc(C#N)cc2F)Oc2cccc(N3CCN(Cc4nc5ccc(C(=O)O)cc5n4Cc4cncs4)[C@@H]4C[C@@H]43)c2O1` [Compound 37, 2-((5-(2-(4-Cyano-2-fluorophenyl)-2-methylbenzo[d][1,3]dioxol-4-yl)-2,5-diazabicyclo[4.1.0]heptan-2-yl)methyl)-1-(thiazol-5-ylmethyl)-1H-benzo[d]imidazole-6-carboxylic Acid]?
**A.** EC50 [1]: < 5 nM; AUC [3]: 15.8 ± 7.6 ng·h/mL; Cmax [4]: 20 ± 7.7 ng/mL

**Q.** With `C[C@]1(c2ccc(C#N)cc2F)Oc2cccc(N3CCN(Cc4nc5ccc(C(=O)O)cc5n4Cc4cncs4)[C@@H]4C[C@@H]43)c2O1` [Compound 38, 2-((5-(2-(4-Cyano-2-fluorophenyl)-2-methylbenzo[d][1,3]dioxol-4-yl)-2,5-diazabicyclo[4.1.0]heptan-2-yl)methyl)-1-(thiazol-5-ylmethyl)-1H-benzo[d]imidazole-6-carboxylic Acid] as the molecule, how does the EC50 [1] read?
**A.** > 100 nM

**Q.** And the AUC [3]?
**A.** 109 ± 21.5 ng·h/mL

**Q.** And the half-life [3]?
**A.** 96 min

**Q.** And the Cmax [4]?
**A.** 58.3 ± 9.74 ng/mL
